How the values were obtained:
Assay type in all cases: in vivo
[1] = tested on: Tobacco Budworm [Heliothis virescens (Fabricius)] eggs; experiment: Tobacco budworm egg test (TBW-E); settings: percent in solution
[2] = tested on: Housefly [Musca domestica]; experiment: Housefly insecticidal test (HF); settings: per 25 female houseflies, 48 hours
[3] = tested on: Rice water weevil [Lissorhoptrus oryzophilus (Kuschel)]; experiment: Rice water weevil test (RWW); settings: per weevil, topical, female adults, 48 hours
Description: (§1) The compounds in Tables 1 and 2 above were tested for insecticidal activity using the following testing procedures. LC50 values, based on the results of these tests and calculated according to dosage-mortality curves, are expressed in Table 3.
Rice water weevil [Lissorhoptrus oryzophilus (Kuschel)]
Test compounds were diluted in acetone. Droplets (1 ul) of test solutions were applied to the ventral abdomens of ten female adult weevils. The treated weevils were placed in containers with wet cotton balls and rice foliage. The containers were covered and kept at a temperature of about 25° C. Mortality was recorded after 48 hours. […] The LC50 values are expressed below in Table 3 under the heading "RWW" in terms of μg of test compound per weevil.

[4] = tested on: Cabbage Looper [Trichoplusia ni (Hubner)]; experiment: Cabbage looper test (CL); settings: second-instar larvae, 3-5 days, percent in solution
[5] = tested on: Maize weevil [Sitophilus Zeamais (Motschulsky)]; experiment: Maize weevil test (MW); settings: adult weevils, treated corn seeds, 48 hours, percent in solution
Summary of the method: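 Adult weevils (10) were placed with four corn seeds that had been dipped 2-3 s in compound dissolved in 50:50 acetone:water, then dried, and held at about 25° C. Mortality was scored at 48 h. LC50 was taken from dosage-mortality curves and expressed as percent compound in solution, from a 0.01% top concentration.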

[6] = tested on: Aster Leafhopper [Macrosteles fascifrens (Stal)]; experiment: Aster leafhopper test (LH); settings: adults/nymphs, 48 hours, percent in solution
[7] = tested on: Tobacco Budworm [Heliothis virescens (Fabricius)]; experiment: Tobacco budworm contact test (TBW-C); settings: second-instar larvae, 5 days, percent in solution
Summary of the method: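 Cotton cotyledons dipped 2–3 s in compound in 50:50 acetone–water, dried, then infested with 5 second-instar larvae and held 5 days at high humidity before scoring mortality.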

[8] = tested on: Beet Armyworm (Spodoptera exigua); experiment: Beet armyworm test (BAW)
Description: as §1
Beet Armyworm (Spodoptera exigua)
Test compounds were diluted in a 50-50 acetone-water solution. Young leaves of sugar beets (Beta vulgaris) were immersed in the test solutions for 2-3 seconds and placed on a wire screen to dry. The dried leaves were placed in petri dishes containing a moistened filter paper and infested with five second-instar beet armyworm larvae. The dishes were placed in a high humidity chamber. Mortality of the larvae was recorded five days later. Test concentrations ranged from 0.1% downward. The LC-50 values are expressed below in Table 3 under the heading "BAW" in terms of percent of the test compound in solution.

[9] = second-instar larvae, five days, percent in solution

Structure (SMILES)	LC50 TBW E [1]	LC50 HF [2]	LC50 RWW [3]	LC50 CL [4]	LC50 MW [5]	LC50 LH [6]	LC50 TBW C [7]	LC50 BAW [8, 9]	LC50 BAW ([8]; 120 h)
CC(C)C(=Nc1ccc(C(F)(F)F)c(Br)c1)OCc1ccc(F)c(Oc2ccc(Cl)cc2)c1 [Compound 433]	0.02%	< 100 µg	0.078 µg	0.00017%	0.005%	–	–	–	–
CC(C)C(=Nc1cccc(Br)c1)OCc1ccc(F)c(Oc2ccccc2)c1 [Compound 387]	0.05%	< 100 µg	> 2.5 µg	0.0012%	> 0.01%	–	–	–	–
CC(C)(F)C(=Nc1ccc(F)c(Cl)c1)OCc1ccc(F)c(Oc2ccc(F)cc2)c1 [Compound 310]	0.015%	4.5 µg	> 2.5 µg	0.00006%	–	–	–	–	–
CC(C)C(=Nc1ccc(C(F)(F)F)cc1)OCc1ccc(F)c(Oc2ccc(F)cc2)c1 [Compound 314]	0.012%	21 µg	0.11 µg	0.00005%	–	–	–	–	–
CC(C)C(=Nc1ccc(Cl)cc1)OCc1ccc(F)c(Oc2ccc(Cl)cc2)c1 [Compound 391]	0.035%	< 100 µg	> 2.5 µg	0.00029%	–	–	–	–	–
CC(C)C(=Nc1ccc(Cl)c(OCC(F)(F)F)c1)OCc1ccc(F)c(Oc2ccc(Cl)cc2)c1 [Compound 452]	< 0.1%	> 100 µg	0.1 µg	0.0017%	> 0.01%	–	–	–	–
CCC(=Nc1ccc(F)c(Cl)c1)OCc1cccc(Oc2ccccc2)c1 [Compound 85]	> 0.1%	7 µg	> 2.5 µg	0.004%	> 0.01%	0.003%	–	–	–
CCOc1ccc(N=C(OCc2ccc(F)c(Oc3ccc(Cl)cc3)c2)C(C)C)cc1Cl [Compound 369]	> 0.1%	> 100 µg	> 2.5 µg	0.0016%	> 0.01%	–	–	–	–
C=C(C)C(=Nc1ccc(C(F)(F)F)cc1)OCc1ccc(F)c(Oc2ccccc2)c1 [Compound 431]	0.025%	9.8 µg	0.084 µg	0.00017%	0.0037%	–	–	–	–
CC(C)C(=Nc1ccc(Br)c(Cl)c1)OCc1cccc(Oc2ccc(Cl)cc2)c1 [Compound 380]	> 0.1%	> 100 µg	> 2.5 µg	> 0.1%	> 0.01%	–	–	–	–
CC(C)C(=Nc1ccc(Cl)c(Cl)c1)OCc1ccc(F)c(Oc2ccccc2)c1 [Compound 376]	0.02%	17 µg	0.1 µg	0.00037%	0.0061%	–	–	–	–
CC(C)C(=Nc1cccc(C(F)(F)F)c1)OCc1ccc(F)c(Oc2ccc(F)cc2)c1 [Compound 268]	0.023%	4 µg	–	0.000025%	> 0.01%	0.0005%	0.0005%	0.001%	–
CC(C)C(=Nc1ccc(C(C)C)cc1)OCc1cccc(Oc2ccccc2)c1 [Compound 144]	0.05%	100 µg	–	0.002%	> 0.01%	0.0006%	0.006%	> 0.01%	–
CC(C)C(=Nc1ccc(F)c(Br)c1)OCc1cccc(Oc2ccccc2)c1 [Compound 254]	0.026%	6 µg	> 2.5 µg	0.001%	–	–	–	–	–
CC(C)C(=Nc1ccc(F)c(Cl)c1)OCc1cc(Oc2ccc(F)cc2)ccc1F [Compound 230]	0.1%	36 µg	> 2.5 µg	0.0004%	0.038%	–	–	–	–
CC(Cl)C(=Nc1ccc(Cl)cc1)OCc1cccc(Oc2ccccc2)c1 (stereo not drawn) [Compound 33]	> 0.1%	17 µg	–	0.01%	> 0.01%	> 0.05%	0.0025%	0.02%	–

Structure (SMILES)	LC50 TBW E [1]	LC50 HF [2]	LC50 RWW [3]	LC50 CL [4]	LC50 MW [5]	LC50 LH [6]	LC50 TBW C [7]	LC50 BAW [8, 9]	LC50 BAW ([8]; 120 h)
CC(C)C(=Nc1ccc(Br)cc1)OCc1ccc(F)c(Oc2ccc(Cl)cc2)c1 [Compound 378]	0.02%	< 100 µg	> 2.5 µg	0.00034%	> 0.01%	–	–	–	–
CC(C)C(=Nc1cccc(F)c1)OCc1ccc(F)c(Oc2ccc(Cl)cc2)c1 [Compound 375]	0.04%	7.9 µg	> 2.5 µg	> 0.1%	> 0.01%	–	–	–	–
FC(F)(F)c1ccc(N=C(OCc2cccc(Oc3ccccc3)c2)C(Cl)Cl)cc1 [Compound 61]	0.03%	29 µg	–	0.001%	> 0.01%	> 0.05%	0.03%	0.002%	–
FC(F)(F)Oc1ccc(N=C(OCc2cccc(Oc3ccccc3)c2)C(Cl)Cl)cc1 [Compound 64]	0.03%	11 µg	–	0.0025%	> 0.01%	> 0.05%	0.1%	0.0025%	–
Fc1ccc(N=C(OCc2cccc(Oc3ccccc3)c2)C2CC2)cc1Cl [Compound 113]	0.1%	15 µg	> 2.5 µg	0.005%	–	–	–	–	–
CC(C)C(=Nc1ccc(F)c(Cl)c1)OCc1cccc(Oc2ccc(F)cc2)c1F [Compound 262]	> 0.1%	26 µg	> 2.5 µg	0.0004%	0.005%	–	–	–	–
FC(F)(F)c1ccc(N=C(OCc2cccc(Oc3ccccc3)c2)C2CC2)cc1 [Compound 62]	0.025%	20 µg	–	0.005%	> 0.01%	> 0.05%	0.0015%	–	0.02%
CC(Cl)(Cl)C(=Nc1ccc(Cl)cc1)OCc1cccc(Oc2ccccc2)c1 [Compound 3]	> 0.1%	50 µg	–	0.012%	> 0.01%	> 0.05%	0.009%	0.015%	–
CCOc1ccc(N=C(OCc2ccc(F)c(Oc3ccccc3)c2)C(C)C)cc1Cl [Compound 370]	0.02%	< 100 µg	> 2.5 µg	0.00034%	> 0.01%	–	–	–	–
CC(C)C(=Nc1ccc2c(c1)OCO2)OCc1cccc(Oc2ccc(F)cc2)c1 [Compound 176]	0.05%	1.8 µg	–	0.0005%	0.009%	> 0.05%	0.002%	0.0035%	–
CC(C)C(=Nc1ccc(Br)c(Cl)c1)OCc1ccc(F)c(Oc2ccc(Cl)cc2)c1 [Compound 381]	0.018%	< 100 µg	> 2.5 µg	0.00092%	> 0.01%	–	–	–	–
CC(C)C(=Nc1ccc(Br)c(Cl)c1)OCc1ccc(F)c(Oc2ccc(F)cc2)c1 [Compound 382]	0.027%	< 100 µg	> 2.5 µg	0.00029%	> 0.01%	–	–	–	–
CC(C)C(=Nc1ccc(C(F)(F)F)c(Br)c1)OCc1ccc(F)c(Oc2ccc(Cl)cc2)c1 [Compound 377]	> 0.1%	< 100 µg	> 2.5 µg	0.00062%	> 0.01%	–	–	–	–
ClCC(=Nc1ccc(Cl)cc1)OCc1cccc(Oc2ccccc2)c1 [Compound 31]	> 0.1%	> 100 µg	–	0.05%	> 0.01%	> 0.05%	0.01%	0.08%	–
CC(C)C(=Nc1ccc(Cl)c(Cl)c1)OCc1cccc(Oc2ccccc2)c1 [Compound 9]	0.02%	14 µg	–	0.001%	> 0.01%	0.0003%	0.0008%	0.0005%	–

— patent US5089623A, “Certain imidate insecticides” (Imperial Chemical Industries Plc, priority 1990, dated 1992)
